US20190053492A1, “SUBSTITUTED PYRIDINE COMPOUNDS AS PESTICIDES” (Bayer CropScience Aktiengesellschaft, priority 2016, published 2019)
Like-named read-outs stand apart in the source and are kept apart here.

Columns and labels:
Musca domestica = Musca domestica test; type: in vivo; conditions: after 2 days, adult houseflies
Protocol: Musca domestica Test Solvent: dimethyl sulphoxide To produce a suitable active ingredient formulation, 10 mg of active ingredient are mixed with 0.5 ml of dimethyl sulphoxide, and the concentrate is diluted with water to the desired concentration. Vessels containing a sponge treated with sugar solution and the active ingredient formulation of the desired concentration are populated with 10 adult houseflies (Musca domestica). After 2 days, the kill in % is determined. 100% means that all of the flies have been killed; 0% means that none of the flies have been killed.

[1] = log P by HPLC on reversed-phase column (C 18), EEC Directive 79/831 Annex V.A8; type: physicochemical; conditions: 55° C.; for LOGP_HCOOH: log P (HCOOH); for LOGP_NEUTRAL: log P, neutral range; for chromatographic logP: reversed-phase HPLC column (C 18)
Protocol: Temperature: 55° C. […] Called log P (HCOOH) in the table. […] Called log P (neutral) in the table.

Phaedon cochleariae = Phaedon cochleariae spray test; type: in vivo; conditions: after 7 days, Chinese cabbage leaf discs
Method in brief: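 Chinese cabbage leaf discs sprayed with compound in acetone/DMF and emulsifier-containing water, then infested with mustard beetle larvae once dry. Efficacy in % scored after 7 days (100% = all larvae killed, 0% = none).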

Lucilia cuprina = Lucilia cuprina test; type: in vivo; conditions: application rate 100 ppm, after 2 days, L1 larvae
Method in brief: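 Active ingredient dissolved in DMSO and diluted with water to the test concentration. About 20 first-instar sheep blowfly larvae placed on minced horsemeat containing the formulation; percentage of larvae killed scored after 2 days.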

Ctenocephalides felis = Ctenocephalides felis oral test; type: in vivo; conditions: application rate 100 ppm in citrated cattle blood, after 2 days, adult cat fleas
Method in brief: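 About 20 unfed adult cat fleas fed through a parafilm membrane on citrated cattle blood dosed with compound from a DMSO formulation. Percent kill was scored after 2 days.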

Spodoptera frugiperda = Spodoptera frugiperda spray test; type: in vivo; conditions: after 7 days, maize leaf discs
Method in brief: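 Maize leaf discs were sprayed with compound formulated in acetone/DMF and emulsifier-containing water, dried, then infested with Spodoptera frugiperda caterpillars. Percent kill was scored after 7 days, from 100% (all dead) to 0% (none dead).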

[2] = acidic range at pH 2.7, 0.1% aqueous formic acid and acetonitrile, HPLC on reversed-phase column (C 18)
[3] = HPLC on reversed-phase column (C 18)
[4] = acidic range pH 2.7, 0.1% aqueous formic acid and acetonitrile, reversed-phase column (C 18)

Row | Compound | efficacy (kill in %) (Musca domestica; application rate 100 ppm) | LOGP_HCOOH [1, 2] | LOGP_NEUTRAL [1, 3] | efficacy (beetle larvae killed) (Phaedon cochleariae; application rate 100 g/ha) | efficacy (beetle larvae killed) (Phaedon cochleariae; application rate 500 g/ha) | efficacy (kill in %) (Lucilia cuprina) | efficacy (kill in %) (Ctenocephalides felis) | efficacy (caterpillars killed) (Spodoptera frugiperda; application rate 100 g/ha) | efficacy (caterpillars killed) (Spodoptera frugiperda; application rate 500 g/ha) | LOGP_HCOOH [1, 4] | chromatographic logP ([1]; pH 2.7, LC-MS acidic range, pH 2.7, 0.1% formic acid/acetonitrile, read-out: log P (acidic) / log P (HCOOH)) | chromatographic logP ([1]; pH 2.7, log P (HCOOH), acidic range at pH 2.7, 0.1% aqueous formic acid and acetonitrile, HPLC on reversed-phase column (C 18), read-out: LOGP_HCOOH) | pest or weed control at 100 g/ha (Phaedon cochleariae; Phaedon cochleariae, foliar, 168 h, application rate 100 g/ha, read-out: efficacy (beetle larvae killed)) | pest or weed control at 500 g/ha (Phaedon cochleariae; Phaedon cochleariae, foliar, 168 h, application rate 500 g/ha, read-out: efficacy (beetle larvae killed)) | pest or weed control at 100 ppm (Ctenocephalides felis; Ctenocephalides felis, po, 48 h, read-out: efficacy (kill in %)) | pest or weed control at 100 g/ha (Spodoptera frugiperda; Spodoptera frugiperda, foliar, 168 h, application rate 100 g/ha, read-out: efficacy (caterpillars killed)) | pest or weed control at 500 g/ha (Spodoptera frugiperda; Spodoptera frugiperda, foliar, 168 h, application rate 500 g/ha, read-out: efficacy (caterpillars killed)) | efficacy (kill in %) (Musca domestica; application rate 20 ppm)
1 | N#Cc1ccc(CNC(=O)c2cc(-c3cc(F)c(OC(F)(F)F)c(F)c3)cc(NC(=O)C3CC3)n2)cc1 [Example I-152] | 90% | 4.14 | 4.05 | 100% | 100% | 90% | 100% | 100% | 100% | – | – | – | – | – | – | – | – | –
2 | CC(C#N)NC(=O)c1cc(-c2ccc(OC(F)(F)F)cc2)cc(NC(=O)C2CC2)n1 (centres unmarked) [Example I-115] | 80% | 3.46 | 3.40 | 100% | 100% | 90% | 100% | 100% | 100% | – | – | – | – | – | – | – | – | –
3 | N#Cc1cc(F)c(CNC(=O)c2cc(-c3ccc(C(F)(F)F)cc3)cc(NC(=O)C3CC3)n2)cc1F [Example I-074] | 100% | – | 3.90 | 100% | 100% | 100% | 100% | 100% | 100% | 4.05 | – | – | – | – | – | – | – | –
4 | O=C(NC1CC1)c1cc(-c2ccc(OC(F)(F)F)cc2)cc(NC(=O)C2CC2)n1 [Example I-089] | 100% | – | 3.39 | 100% | 100% | 95% | 100% | 100% | 100% | 3.51 | – | – | – | – | – | – | – | –
5 | CC(C)C(=O)Nc1cc(-c2ccc(C(F)(F)F)cc2)cc(C(=O)NCc2ccc(C#N)cc2F)n1 [Example I-078] | 100% | – | 3.96 | – | 100% | 100% | 100% | 100% | 100% | 3.99 | – | – | – | – | – | – | – | –
6 | N#Cc1ccc(CNC(=O)c2cc(-c3ccc(C(F)(F)F)s3)cc(NC(=O)C3CC3)n2)cc1 [Example I-160, N-(4-Cyanobenzyl)-6-[(cyclopropylcarbonyl)amino]-4-[5-(trifluoromethyl)-2-thienyl]pyridine-2-carboxamide] | 80% | – | – | – | – | 100% | – | – | – | – | 3.73 | 3.68 | 100% | 100% | 100% | 100% | 100% | –
7 | O=C(NC1(C2CC2)CC1)c1cc(-c2ccc(OC(F)(F)F)cc2)cc(NC(=O)C2CC2)n1 [Example I-184] | – | 4.23 | – | 100% | 100% | 100% | 100% | – | 100% | – | – | – | – | – | – | – | – | 100%
8 | CC(NC(=O)c1cc(-c2ccc(C(F)(F)F)cc2)cc(NC(=O)C2CC2)n1)c1ccc(C#N)cc1 (centres unmarked) [Example I-040] | 90% | – | 3.94 | 100% | 100% | 100% | 98% | 83% | 100% | 4.01 | – | – | – | – | – | – | – | –
9 | N#Cc1ccc(CNC(=O)c2cc(-c3ccc(C(F)(F)F)cc3)cc(NC(=O)C3CC3)n2)cc1F [Example I-026] | 100% | – | 3.79 | 100% | 100% | 100% | 100% | 100% | 100% | 3.87 | – | – | – | – | – | – | – | –
10 | O=C(NCc1ccc([N+](=O)[O-])cc1)c1cc(-c2ccc(C(F)(F)C(F)(F)F)cc2)cc(NC(=O)C2CC2)n1 [Example I-196] | 80% | 4.37 | 4.30 | 100% | 100% | 100% | 100% | 100% | 100% | – | – | – | – | – | – | – | – | –
11 | N#Cc1ccc(CNC(=O)c2cc(-c3cc(F)c(OC(F)F)c(F)c3)cc(NC(=O)C3CC3)n2)cc1 [Example I-155] | 100% | 3.46 | 3.40 | – | 83% | 100% | 100% | 100% | 100% | – | – | – | – | – | – | – | – | –
12 | N#Cc1ccc(CNC(=O)c2cc(-c3ccc4c(c3)OC(F)(F)C(F)(F)O4)cc(NC(=O)C3CC3)n2)cc1 [Example I-172] | 100% | 4.27 | 4.57 | – | 100% | 100% | 100% | 100% | 100% | – | – | – | – | – | – | – | – | –
13 | N#CC1CCC(CNC(=O)c2cc(-c3ccc(C(F)(F)C(F)(F)F)cc3)cc(NC(=O)C3CC3)n2)CC1 (centres unmarked) [Example I-195] | 100% | 4.22 | 4.08 | 100% | 100% | 100% | 100% | 100% | 100% | – | – | – | – | – | – | – | – | 100%
14 | O=C(NCc1ccc([N+](=O)[O-])cc1)c1cc(-c2ccc(OC(F)(F)F)cc2)cc(NC(=O)C2CC2)n1 [Example I-085] | 80% | – | 3.97 | 100% | 100% | 100% | 100% | 100% | 100% | 4.11 | – | – | – | – | – | – | – | –
